Among the data in the Deep4Chem optical property database are emission maximum values, retold here.

Molecules are shown by their SMILES. Values joined by “and” are separate entries in the source; they are usually repeats but may differ in a detail not shown here. Equal values may be shown once.

A short description of the data set: solvent given as SMILES.

For `CC1(C)c2ccccc2N(c2ccc(-c3nnc(-c4ccc(-n5c6ccccc6c6ccccc65)cc4)o3)cc2)c2ccccc21`, the emission maximum is 460 nm (in Cc1ccccc1) and 479 nm (in O=P(c1ccccc1)(c1ccccc1)c1ccccc1Oc1ccccc1P(=O)(c1ccccc1)c1ccccc1).

Under “in Cc1ccccc1”, `CCCCN1C(=O)c2cccc3c(N(C)C)ccc(c23)C1=O` showed an emission maximum of 486 nm.

`CC[NH+](CC)c1ccc(-c2nc3c4ccccc4n(C)c3nc2-c2ccc(B(c3c(C)cc(C)cc3C)c3c(C)cc(C)cc3C)cc2)cc1` showed an emission maximum (in C1CCOC1) of 451.19 nm.

For the compound `COc1ccc(-c2cnc3nn4ccccc4c3c2)cc1`, the emission maximum (in C1CCOC1) is reported as 423 nm.

As for `Cc1cccc2nc3c(=O)n(C)c(=O)nc-3n(C)c12`, the emission maximum (in CC#N) is 532 nm.

In the case of `CN(C)c1ccc(/C=C/c2nc3ccc(Br)cc3nc2-c2ccccc2)cc1`, the emission maximum worked out at 555 nm (in C1COCCO1), 648 nm (in CC#N) and 602 nm (in ClCCl).

For `c1cc2ccc3ccc(-n4c5ccccc5c5ccccc54)c4ccc(c1)c2c34`, the emission maximum runs as follows: (in CCCCCC) 407 nm; (in CCO) 398 nm; (in CCOC(C)=O) 398 nm; (in ClCCl) 399 nm.

Compound `CC(C)(C)c1ccc2c(c1)c1cc(C(C)(C)C)ccc1n2-c1ccc(N(c2ccc(-c3ccc(-c4ccc(-c5ccc(-c6ccc(-c7ccc(N(c8ccc(-n9c%10ccc(C(C)(C)C)cc%10c%10cc(C(C)(C)C)ccc%109)cc8)c8ccc(-n9c%10ccc(C(C)(C)C)cc%10c%10cc(C(C)(C)C)ccc%109)cc8)cc7)s6)s5)s4)s3)cc2)c2ccc(-n3c4ccc(C(C)(C)C)cc4c4cc(C(C)(C)C)ccc43)cc2)cc1` registered an emission maximum (in ClCCl) of 529 nm.

On to `CCOC(=O)CSc1nc2c(c(C#N)c1C#N)CCCC2`, for which the emission maximum (in c1ccccc1) came to 407 nm.

Compound `[C-]#[N+]c1ccc(-c2ccc(NC)cc2)cc1` came in with an emission maximum (in C1CCCCC1) of 368 nm; an emission maximum (in C1CCOC1) of 406 nm; an emission maximum (in C1COCCO1) of 395 nm; an emission maximum (in CC#N) of 421 nm; an emission maximum (in CC(C)=O) of 427 nm; an emission maximum (in CCCCCC) of 366 nm. The emission maximum by setting is: (in CCOC(C)=O) 403 nm; (in CN(C)C=O) 435 nm; (in CO) 422 nm; (in CS(C)=O) 436 nm; (in Cc1ccccc1) 388 nm; (in ClC(Cl)Cl) 400 nm. Moreover, the emission maximum was 405 nm (in ClCCl), 458 nm (in O) and 421 nm (in c1ccncc1).

In the case of `CCN(C(C)=O)c1cc2c(cc1C)C(c1ccccc1C(=O)O)=C1CCCC(/C=C/C3=[N+](C)c4ccccc4C3(C)C)=C1O2`, where the note is “in CCO”, the emission maximum is given as 687 nm.

In the case of `Cc1cc(C)c(B(c2ccc(-c3ccc(-c4nc5c6ccccc6c6ccccc6c5[nH]4)cc3)cc2)c2c(C)cc(C)cc2C)c(C)c1`, the emission maximum is 474 nm (in C1CCOC1); 493 nm (in CC(C)=O); 520 nm (in CS(C)=O); 435 nm (in Cc1ccccc1); 469 nm (in ClCCl).

As to `c1ccc(-c2nc(-c3ccccc3)nc(-c3ccc(-n4c5ccccc5c5ccc6c(c7ccccc7n6-c6ccccc6)c54)cc3)n2)cc1`, the emission maximum (in Cc1ccccc1) is 466.56 nm and 461 nm; the emission maximum (in O=P(c1ccccc1)(c1ccccc1)c1ccc2oc3ccc(P(=O)(c4ccccc4)c4ccccc4)cc3c2c1) turned out to be 479 nm.

Under “in CC#N”, `Cc1ccc2c(nc3c(=O)n(C)c(=O)nc-3n2C)c1C` gave an emission maximum of 543 nm.

In the case of `Cc1cc(-c2nnc(-c3ccccc3)o2)ccc1-n1c2ccccc2c2ccccc21`, the emission maximum was 445 nm (in CCO) and 382 nm (in Cc1ccccc1).

On to `CCN(CC)c1ccc(/C=N/c2ccccc2/N=C/c2ccc(N(CC)CC)cc2O)c(O)c1`, for which the emission maximum came out at 502 nm (in CC#N), 573 nm (in CN(C)C=O) and 535 nm (in ClCCl).

Regarding `c1ccc(-c2nc(-c3ccc(N4CCCC4)cc3)cc(-c3ccc4ccccc4c3)n2)cc1`, under “in ClC(Cl)Cl”, the emission maximum is on record as 498 nm.

With `C1=Cc2ccccc2C(=Cc2ccc(-c3ccc(C=C4c5ccccc5C=Cc5ccccc54)cc3)cc2)c2ccccc21`, the emission maximum (in C1CCOC1) came to 405 nm.

Under “in CC1CCCCC1”, `CC(C)(C)c1ccc2cc3c4cccc5cccc(c6cc(C(C)(C)C)cc(c2c1)c63)c54` displayed an emission maximum of 445 nm.

Take `CCC1=C(C)C2=Cc3ccccc3B(O)N2C1=O`: the emission maximum is, setting by setting: (in CC#N) 411 nm; (in CCCCCC) 405 nm; (in CO) 411 nm; (in CS(C)=O) 416 nm; (in ClC(Cl)Cl) 418 nm.

Turning to `O=C1c2cccc3c(-n4c5ccccc5c5ccccc54)ccc(c23)C(=O)N1C1CCCCC1`, the emission maximum (in C1CCOC1) came out at 546 nm, the emission maximum (in CCCCCC) is 441 nm, the emission maximum (in ClC(Cl)Cl) turned out to be 495 nm and the emission maximum (in ClCCl) came to 563 nm.

Consider `CC[N+](CC)=c1ccc2nc3c(cc(NCCC(=O)NC(C)C(=O)OC)c4ccccc43)oc-2c1` (configuration not stated), for which the emission maximum is, setting by setting: (in CCO) 672 nm; (in O) 684 nm.

Regarding `N[C@@H](Cn1nnc2cc(-c3ccc(N4CCOCC4)cc3)ccc21)C(=O)O`, the emission maximum (in CO) turned out to be 384 nm.

As to `c1ccc(-n2c3ccccc3c3cc([Si](c4ccccc4)(c4ccccc4)c4ccc5c(c4)c4ccccc4n5-c4ccccc4)ccc32)cc1`, the emission maximum (in ClCCl) came out at 350 nm.

As for `O=S(=O)(c1ccc2c(c1)c1ccccc1n2-c1ccccc1)c1ccc2c(c1)c1ccccc1n2-c1ccccc1`, the emission maximum (in ClCCl) worked out at 372 nm.

Consider `CC(=O)OCCOCCN1C(=O)c2cc(NCCOCCO)c3c4c(cc(NCCOCCO)c(c24)C1=O)C(=O)N(CCOCCOC(C)=O)C3=O`, for which the emission maximum is, setting by setting: (in CO) 641 nm; (in ClC(Cl)Cl) 640 nm; (in O) 657 nm.

Turning to `COC(=O)c1nc(-c2cccc3ccccc23)oc1C`, the emission maximum (in C1CCCCC1) was found to be 340 nm, the emission maximum (in CC#N) amounted to 343 nm, the emission maximum (in CCO) is 344 nm and the emission maximum (in CCOC(C)=O) is listed as 342 nm.

For `N#CC1=C(c2ccc(-c3cccs3)s2)CCC1`, the emission maximum runs as follows: (in C1CCOC1) 441 nm; (in CC#N) 445 nm; (in CCCCCC) 428 nm; (in CCO) 443 nm; (in OCCOCCO) 455 nm; (in c1ccncc1) 450 nm.

Turning to `CCN(CC)c1ccc2c(c1)oc(=O)c1cc3c(-c4ccccc4)nn(C)c3nc12`, the emission maximum (in ClCCl) is 506 nm.

Turning to `Cc1ccc(/C(C#N)=C/c2cc(/C=C(\C#N)c3ccc(C)cc3)c(-c3ccc(N(c4ccccc4)c4ccccc4)cc3)cc2-c2ccc(N(c3ccccc3)c3ccccc3)cc2)cc1`, the emission maximum is, setting by setting: (in C1CCCCC1) 453 nm; (in C1CCOC1) 538 nm; (in CCCCCC) 453 nm; (in CCOC(C)=O) 533 nm; (in Cc1ccccc1) 480 nm; (in ClC(Cl)Cl) 517 nm. The emission maximum (in ClCCl) turned out to be 552 nm.

On to `COc1ccc(-c2cnc3nn4ccccc4c3n2)cc1`, for which, for the setting “in C1CCOC1”, the emission maximum was 455 nm.

Turning to `CC(=O)c1nc(-c2ccc(N(c3ccccc3)c3ccccc3)cc2)oc1C`, the emission maximum by setting is: (in CC#N) 452 nm; (in CCCCCC) 385 nm; (in CCO) 468 nm; (in CCOC(C)=O) 419 nm; (in CCOCC) 408 nm; (in ClCCl) 448 nm.

As for `COc1ccc2c(c1)CCC1=C(C#Cc3cc4ccccc4c4ccccc34)O[B-](F)(F)[O+]=C12`, under “in ClCCl”, the emission maximum turned out to be 500 nm.

Turning to `c1ccc(-n2c3ccccc3c3cc(-c4cccc(-n5c6ccccc6c6ncccc65)c4)ccc32)cc1`, the emission maximum (in ClCCl) is reported as 360 nm.

On to `COc1ccc2c(c1)c1c(c3cc(OC)ccc32)=[N+]2C(=C(c3c(C)cc(C)cc3C)c3cc4c5cc(OC)ccc5c5ccc(OC)cc5c4n3[B-]2(F)F)C=1`, for which the emission maximum is, setting by setting: (in C1CCCCC1) 710 nm; (in C1CCOC1) 713 nm; (in CC#N) 711 nm; (in Cc1ccccc1) 717 nm; (in ClCCl) 713 nm.

`[O-]c1ccc2ccccc2c1` registered an emission maximum (in O) of 414 nm.

Take `N#Cc1ccc2c(c1)C1(c3cc(C#N)ccc3-2)c2ccccc2N(c2ccccc2)c2ccccc21`: for the setting “in Cc1ccccc1”, the emission maximum was 492.18 nm.

With `CN(CCO)c1ccc(/N=N/c2ccc([N+](=O)[O-])cc2)cc1`, the emission maximum (in CO) came out at 580 nm, the emission maximum (in OCC(O)CO) was 581 nm, the emission maximum (in OCCO) is reported as 583 nm and the emission maximum (in Oc1ccccc1) is listed as 581 nm.

Consider `Cc1cc2c(cc1N1c3ccccc3C(C)(C)c3ccccc31)C(C)(C)c1cc(N3c4ccccc4C(C)(C)c4ccccc43)c(C)cc1S2(=O)=O`, for which the emission maximum runs as follows: (in Cc1ccccc1) 442.11 nm; (in ClCCl) 495 nm.

The compound `CC1=NN(c2cccc3ccccc23)[B-](F)(F)[n+]2ccccc21` returned an emission maximum (in ClCCl) of 538 nm.

The compound `c1ccc(N2c3ccccc3Sc3cc(-c4cccc5nc6ccccc6cc45)ccc32)cc1` displayed an emission maximum (in C1CCOC1) of 476 nm; an emission maximum (in CC#N) of 504 nm; an emission maximum (in CC(C)=O) of 495 nm; an emission maximum (in CC(C)OC(C)C) of 546 nm; an emission maximum (in CCCCCC) of 487 nm; an emission maximum (in CCCCOCCCC) of 533 nm. Besides, the emission maximum by setting is: (in CCN(CC)CC) 525 nm; (in CCOC(C)=O) 474 nm; (in CCOCC) 549 nm; (in CN(C)C=O) 495 nm; (in ClCCl) 483 nm.

`COc1cc2sc3nc(-c4ccccc4OC)sc3c2cc1OC`: the emission maximum (in CS(C)=O) worked out at 438 nm.

In turn, `CCC1=C(C)C2=Cc3cscc3B(O)N2C1=O` showed an emission maximum (in CC#N) of 412 nm; an emission maximum (in CCCCCC) of 396 nm; an emission maximum (in CO) of 418 nm; an emission maximum (in CS(C)=O) of 425 nm; an emission maximum (in ClC(Cl)Cl) of 414 nm.
